Activity and inhibition data for 17 compounds are collected here from ChEMBL document CHEMBL1138146, “Analysis of anti-PDE3 activity of 2-morpholinochromone derivatives reveals multiple mechanisms of anti-platelet activity” (Bioorg Med Chem Lett, 2006).

Calls of active or inactive are those of the source. The calls are words filed in the database; no cut-off is given here.

The species named for the first experiment is Homo sapiens. The experiment is described as follows: Inhibition of PAR4AP induced platelet aggregation at 25 uM. It counts as functional.
Turning to `Cc1c(OCc2ccccc2)ccc2c(=O)cc(N3CCOCC3)oc12`, the outcome was Active.

In the next experiment the target is cGMP-inhibited 3',5'-cyclic phosphodiesterase 3A (Homo sapiens) (UniProt Q14432). The experiment is described as follows: Inhibition of PDE3A at 50 uM.
Sequence of cGMP-inhibited 3',5'-cyclic phosphodiesterase 3A (Homo sapiens) (Q14432 whole entry): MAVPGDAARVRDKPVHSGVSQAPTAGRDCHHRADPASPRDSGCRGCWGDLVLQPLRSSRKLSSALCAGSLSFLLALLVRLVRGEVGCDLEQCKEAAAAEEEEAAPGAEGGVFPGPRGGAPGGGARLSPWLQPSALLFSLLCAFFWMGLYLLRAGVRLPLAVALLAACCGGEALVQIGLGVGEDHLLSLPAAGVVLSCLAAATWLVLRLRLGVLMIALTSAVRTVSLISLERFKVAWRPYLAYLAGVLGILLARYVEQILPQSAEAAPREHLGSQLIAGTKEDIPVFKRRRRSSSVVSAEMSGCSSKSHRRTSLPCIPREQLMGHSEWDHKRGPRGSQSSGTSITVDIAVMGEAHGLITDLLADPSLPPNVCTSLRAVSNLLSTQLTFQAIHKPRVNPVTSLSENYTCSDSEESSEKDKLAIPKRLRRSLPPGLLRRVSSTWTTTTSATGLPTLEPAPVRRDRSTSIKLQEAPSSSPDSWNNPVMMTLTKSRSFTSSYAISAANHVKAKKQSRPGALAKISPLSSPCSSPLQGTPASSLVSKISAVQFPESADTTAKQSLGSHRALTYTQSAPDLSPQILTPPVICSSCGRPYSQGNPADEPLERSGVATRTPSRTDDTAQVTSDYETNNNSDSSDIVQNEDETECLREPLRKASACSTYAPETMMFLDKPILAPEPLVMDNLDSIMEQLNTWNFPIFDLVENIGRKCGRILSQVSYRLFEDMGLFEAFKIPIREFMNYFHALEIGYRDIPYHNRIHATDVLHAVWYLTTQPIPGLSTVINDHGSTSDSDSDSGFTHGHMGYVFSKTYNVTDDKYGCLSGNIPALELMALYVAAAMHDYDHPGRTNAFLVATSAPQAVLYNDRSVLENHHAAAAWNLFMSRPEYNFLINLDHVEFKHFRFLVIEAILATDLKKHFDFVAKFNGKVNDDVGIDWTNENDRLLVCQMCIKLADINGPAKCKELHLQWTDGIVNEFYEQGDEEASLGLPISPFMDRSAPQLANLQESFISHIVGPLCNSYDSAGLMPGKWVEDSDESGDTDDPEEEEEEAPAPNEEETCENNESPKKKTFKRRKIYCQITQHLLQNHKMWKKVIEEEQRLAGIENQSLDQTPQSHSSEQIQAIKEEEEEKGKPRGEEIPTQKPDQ
Turning to `O=c1cc(N2CCOCC2)oc2cc(Oc3ccccc3)ccc12`, the inhibition (commonly the change of the read-out against control, counted positive when it falls) is 43%. Take `O=c1cc(N2CCOCC2)oc2cc(OCc3cccnc3)ccc12`: the inhibition came out at 19%. For the compound `Cc1c(OCc2cccnc2)ccc2c(=O)cc(N3CCOCC3)oc12`, the inhibition was determined as 68%.

On to `COc1cc(-c2ccc(Cl)cc2)c2oc(N3CCOCC3)cc(=O)c2c1`, for which the inhibition was 63%. For `O=c1cc(N2CCOCC2)oc2cc(C#Cc3ccccc3)ccc12`, the inhibition was found to be 70%. With `O=c1cc(N2CCOCC2)oc2c(C#Cc3ccccc3)cccc12`, the inhibition came to 60%.

In the case of `Cc1c(Oc2ccccc2)ccc2c(=O)cc(N3CCOCC3)oc12`, the inhibition worked out at 78%. In the case of `Cc1c(OCCN2CCN(C)CC2)ccc2c(=O)cc(N3CCOCC3)oc12`, the inhibition is -10%. The same measure, in the same setting: the result for `O=c1cc(N2CCOCC2)oc2c(OCc3cccnc3)cccc12` reads 5%; that for `O=c1cc(N2CCOCC2)oc2c(CCc3ccccc3)cccc12`, 28%; that for `O=c1cc(N2CCOCC2)oc2cc(OCc3ccccc3)ccc12`, 49%. Same read-out and setting: the result for `O=c1cc(N2CCOCC2)oc2cc(-c3ccccc3)ccc12` reads 50%.

`Cc1c(-c2ccccc2)ccc2c(=O)cc(N3CCOCC3)oc12`: the inhibition came to 83%.

For the compound `O=c1cc(N2CCOCC2)oc2c(OCc3ccccc3)cccc12`, the inhibition was -7%. Still for that read-out and setting: the result for `O=c1cc(N2CCOCC2)oc2c(-c3ccccc3)cccc12` reads 35%. For `Cc1c(C#Cc2ccccc2)ccc2c(=O)cc(N3CCOCC3)oc12`, the inhibition amounted to 44%. `Cc1c(OCc2ccccc2)ccc2c(=O)cc(N3CCOCC3)oc12`: the inhibition is 86%.

The target of a further experiment is Phosphodiesterase 3 (Homo sapiens) (UniProt Q14432+Q13370). The experiment is described as follows: Inhibition of PDE3 at 6.25 uM. The format is protein assay.
Turning to `Cc1c(OCc2cccnc2)ccc2c(=O)cc(N3CCOCC3)oc12`, the inhibition was 46%.
